# Test results from PMC5681660, “Reduced hepatitis B and D viral entry using clinically applied drugs as novel inhibitors of the bile acid transporter NTCP” (Scientific Reports, 2017).
# Where a name gives a salt, the structure may show the parent alone.
# Target: T1, human NTCP (Homo sapiens, UniProt Q14973)
# T1 sequence (Q14973 1-349): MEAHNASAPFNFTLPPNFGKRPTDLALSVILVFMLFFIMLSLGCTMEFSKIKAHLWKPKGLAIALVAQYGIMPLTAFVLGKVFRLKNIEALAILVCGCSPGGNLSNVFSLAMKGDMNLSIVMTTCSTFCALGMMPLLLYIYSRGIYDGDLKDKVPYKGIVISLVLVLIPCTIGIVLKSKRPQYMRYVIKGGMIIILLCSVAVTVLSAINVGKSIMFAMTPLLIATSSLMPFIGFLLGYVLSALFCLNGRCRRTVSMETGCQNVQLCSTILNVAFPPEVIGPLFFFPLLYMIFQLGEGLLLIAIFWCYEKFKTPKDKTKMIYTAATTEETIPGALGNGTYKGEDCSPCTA
# Assay: Screening taurocholate uptake assay (96-well, [14C]taurocholate, 10 µM drug)
# Conditions: for B-score functional assay: screening taurocholate uptake, 10 µM drug
# [1] = ranking over the functional and the binding screening assay
# [2] = combined ranking of functional and binding screening assays
Structure (SMILES),Ranking score [1],B-score functional assay,Ranking score [2],B-score functional assay (B-score)
[H]/N=C(\N/C(=N/[H])NCCCCCCNC(=N)NC(=N)Nc1ccc(Cl)cc1)Nc1ccc(Cl)cc1 [Chlorhexidine],185.515,0.062,,
CC1=C(/C=C/C(C)=C/C=C/C(C)=C/C(=O)O)C(C)(C)CCC1 [Retinoic acid],197.388,-0.152,,
CCC(COC(=O)c1cc(OC)c(OC)c(OC)c1)(c1ccccc1)N(C)C (stereo not shown) [Trimebutine],,-0.018,579.884,
CN(C)CCCOc1nn(Cc2ccccc2)c2ccccc12 [Benzydamine hydrochloride],,0.075,571.97,
CC(=O)OC(C)C[N+](C)(C)C (stereo not shown) [Methacholine chloride],,0.496,628.097,
CN1[C@@H]2CC[C@H]1C[C@@H](OC(=O)c1c[nH]c3ccccc13)C2 [Tropisetron HCl],,-1.094,543.985,
CC(=O)N[C@@H](CC(C)C)C(=O)O [N-Acetyl-L-leucine],,-1.591,463.866,
CCN1CCN(C(=O)N[C@@H](C(=O)N[C@@H]2C(=O)N3[C@@H]2SC(C)(C)[C@@H]3C(=O)O)c2ccccc2)C(=O)C1=O [Piperacillin sodium salt],,-0.194,549.729,
C/C(=C(\CCOP(=O)(O)O)SC(=O)c1ccccc1)N(C=O)Cc1cnc(C)nc1N [Benfotiamine],,-0.56,532.072,
OCCN1C[C@H](O)[C@@H](O)[C@H](O)[C@H]1CO [Miglitol],,-1.145,510.427,
CC(CCc1ccccc1)NCC(O)c1ccc(O)c(C(N)=O)c1 (stereo not shown) [Labetalol hydrochloride],,2.094,596.712,
CC1(C)S[C@@H]2[C@H](NC(=O)[C@H](NC(=O)N3CCNC3=O)c3ccccc3)C(=O)N2[C@H]1C(=O)O [Azlocillin sodium salt],129.337,-0.407,,
CCNCC(O)c1cccc(O)c1 (stereo not shown) [Etilefrine hydrochloride],,-0.021,503.552,
Nc1ccc(S(=O)(=O)NC(=O)c2ccccc2)cc1 [Sulfabenzamide],,0.164,563.848,
COc1cc2nc(N(C)CCCNC(=O)C3CCCO3)nc(N)c2cc1OC (stereo not shown) [Alfuzosin hydrochloride],237.095,-2.737,,
CCCN(CCC)C(=O)C(CCC(=O)O)NC(=O)c1ccccc1 (stereo not shown) [Proglumide],231.221,0.098,,
Oc1c(I)cc(Cl)c2cccnc12 [Clioquinol],,0.225,627.53,
Cc1cccc(Nc2ccncc2S(=O)(=O)NC(=O)NC(C)C)c1 [Torsemide],,-1.122,467.226,
CCCCCC[C@H]1C(=O)O[C@H](C)[C@H](NC(=O)c2cccc(NC=O)c2O)C(=O)O[C@@H](C)[C@@H]1OC(=O)CC(C)C [Antimycin A],15.6525,-8.175,,

Structure (SMILES),Ranking score [1],B-score functional assay,Ranking score [2],B-score functional assay (B-score)
COc1cc2nc(N3CCN(C(=O)C4CCCO4)CC3)nc(N)c2cc1OC (stereo not shown) [Terazosin hydrochloride],,-0.092,497.689,
Cc1c(C)c2c(c(C)c1O)CCC(C)(C(=O)O)O2 (stereo not shown) [Trolox],114.263,-2.983,,
CCOC(=O)OC(C)OC1=C(C(=O)Nc2ccccn2)N(C)S(=O)(=O)c2ccccc21 (stereo not shown) [Ampiroxicam],,0.098,519.584,
C=C1/C(=C\C=C2/CCC[C@]3(C)[C@@H]([C@H](C)/C=C/[C@@H](O)C4CC4)CC[C@@H]23)C[C@@H](O)C[C@@H]1O [Calcipotriene],164.682,-4.364,,
Cl.O=C1OC(CN2CCOCC2)CN1/N=C/c1ccc([N+](=O)[O-])o1 (stereo not shown) [Furaltadone hydrochloride],,0.718,592.766,
Cc1cccn2c(=O)c(-c3nnn[nH]3)cnc12 [Pemirolast potassium],,0.868,607.829,
Cc1cccc(CN2CCN(C(c3ccccc3)c3ccc(Cl)cc3)CC2)c1.Cl.Cl (stereo not shown) [Meclozine dihydrochloride],,-1.455,482.469,
CC(C)(C#N)c1cc(Cn2cncn2)cc(C(C)(C)C#N)c1 [Anastrozole],,0.728,558.153,
C=CCN1CCCC1CNC(=O)c1cc2[nH]nnc2cc1OC.Cl (stereo not shown) [Alizapride HCl],,2.201,642.464,
CCS(=O)(=O)CCn1c([N+](=O)[O-])cnc1C [Tinidazole],,-0.469,478.029,
C[C@@H]1C[C@H]2[C@@H]3CCC4=CC(=O)C=C[C@]4(C)[C@@]3(Cl)[C@@H](O)C[C@]2(C)[C@@]1(OC(=O)c1ccco1)C(=O)CCl [Mometasone furoate],101.489,-0.4,,
CCCCC(CC)CNC(=N)NC(=N)NCCCCCCNC(=N)NC(=N)NCC(CC)CCCC (stereo not shown) [Alexidine dihydrochloride],6.481,-9.197,,
CCCCCCCCCCCCCCCC[N+](C)(C)CCN(Cc1ccc(OC)cc1)c1ncccn1 [Thonzonium bromide],50.5173,-2.235,,
CCC(C)(C)c1ccc(CC(C)CN2C[C@@H](C)O[C@@H](C)C2)cc1 (stereo partly shown) [Amorolfine hydrochloride],,-0.84,533.183,
CN(CCOc1ccc(NS(C)(=O)=O)cc1)CCc1ccc(NS(C)(=O)=O)cc1 [Dofetilide],,-0.213,626.449,
COc1cc([C@@H]2c3cc4c(cc3[C@H](O)[C@H]3COC(=O)[C@H]23)OCO4)cc(OC)c1OC [Podophyllotoxin],,,1193.91,1.781
O=C(CCCCCCC(=O)Nc1ccccc1)NO [Vorinostat],,-0.284,583.003,
CCN(CC)CCNc1ccc(CO)c2sc3ccccc3c(=O)c12 [Hycanthone],,-0.266,491.684,
CC(=O)c1ccc2c(c1)N(CCCN1CCC(CCO)CC1)c1ccccc1S2 [Piperacetazine],,-0.935,531.5,

Structure (SMILES),Ranking score [1],B-score functional assay,Ranking score [2],B-score functional assay (B-score)
Cn1cnc2c1c(=O)[nH]c(=O)n2C [Theobromine],,-0.75,527.693,
CC(C)(C(=O)O)c1ccc(C(O)CCCN2CCC(C(O)(c3ccccc3)c3ccccc3)CC2)cc1 (stereo not shown) [Fexofenadine HCl],234.288,-2.318,,
O=C(CCCN1CCC2(CC1)C(=O)NCN2c1ccccc1)c1ccc(F)cc1 [Spiperone],,-0.689,571.731,
CCN(C(C)=O)c1cccc(-c2ccnc3c(C#N)cnn23)c1 [Zaleplon],,1.229,584.018,
CC(C)N1CCN(c2ccc(OCC3COC(Cn4cncn4)(c4ccc(Cl)cc4Cl)O3)cc2)CC1 (stereo not shown) [Terconazole],,-0.057,502.144,
Clc1ccc2c(c1)C(N1CCNCC1)=Nc1ccccc1O2 [Amoxapine],,0.589,604.055,
CCOC(=O)c1ccc(N)cc1 [Benzocaine],153.542,-1.326,,
CC(=O)[C@@]1(O)CC[C@H]2[C@@H]3C[C@H](C)C4=CC(=O)C=C[C@]4(C)[C@@]3(F)[C@@H](O)C[C@@]21C [Fluorometholone],,-0.26,616.409,
C[C@]1(Cn2ccnn2)[C@H](C(=O)O)N2C(=O)C[C@H]2S1(=O)=O [Tazobactam],,2.889,613.948,
C[C@@H]1C[C@H]2[C@@H]3C[C@H](F)C4=CC(=O)C=C[C@]4(C)[C@@]3(F)[C@@H](O)C[C@]2(C)[C@@]1(O)C(=O)COC(=O)C(C)(C)C [Flumethasone pivalate],,0.019,535.546,
CC(NC(C)(C)C)C(=O)c1cccc(Cl)c1 (stereo not shown) [Bupropion hydrochloride],,0.583,557.749,
CCOC(=O)n1ccn(C)c1=S [Carbimazole],161.053,-0.455,,
c1ccc2c(c1)Nc1ccccc1S2 [Phenothiazine],,-0.168,553.972,
Cn1c(NCCN(CCO)CCCc2ccc([N+](=O)[O-])cc2)cc(=O)n(C)c1=O [Nifekalant],,0.451,503.354,
CC(C)C[C@H](NC(=O)[C@@H](O)[C@H](N)Cc1ccccc1)C(=O)O [Ubenimex],,0.218,608.5,
CC[N+](C)(CC)CCOC(=O)C1c2ccccc2Oc2ccccc21 [Methantheline bromide],,-0.025,536.517,
CN(Cc1cc(Br)cc(Br)c1N)C1CCCCC1 [Bromhexine hydrochloride],149.492,-0.767,,
COCCOC(=O)C1=C(C)NC(C)=C(C(=O)OC/C=C/c2ccccc2)C1c1cccc([N+](=O)[O-])c1 (stereo not shown) [Cilnidipine],,0.219,582.255,
